Results taken from PMC3531872 (Chemical research in toxicology, 2011).
Where two headings read alike, the source gives them in different places.

Key:
[1] = biological target: T1, Recombinant human P450 1A1 (Homo sapiens, UniProt P04798); experiment: N- and C-oxidation by recombinant human P450 1A1; assay type: in vitro ADME
T1 sequence (P04798 1-512): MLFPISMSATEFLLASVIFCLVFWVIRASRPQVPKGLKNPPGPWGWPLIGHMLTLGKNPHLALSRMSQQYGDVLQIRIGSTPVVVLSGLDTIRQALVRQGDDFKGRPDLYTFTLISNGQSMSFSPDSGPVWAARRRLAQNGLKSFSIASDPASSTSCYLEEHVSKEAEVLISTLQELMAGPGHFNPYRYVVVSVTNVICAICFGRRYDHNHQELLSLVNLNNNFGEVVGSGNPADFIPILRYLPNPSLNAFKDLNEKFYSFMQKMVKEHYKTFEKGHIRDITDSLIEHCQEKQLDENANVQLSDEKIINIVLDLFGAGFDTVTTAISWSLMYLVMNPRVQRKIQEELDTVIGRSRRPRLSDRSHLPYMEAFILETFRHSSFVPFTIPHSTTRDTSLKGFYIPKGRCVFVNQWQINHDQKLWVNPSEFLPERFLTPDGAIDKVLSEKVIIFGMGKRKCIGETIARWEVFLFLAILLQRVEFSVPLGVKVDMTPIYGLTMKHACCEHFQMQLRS

[2] = system: liver, pancreas and colorectal DNA; experiment: In vivo DNA binding
rat liver DNA = details: 24 h following oral dosing with MeIQx (10 mg/kg); cited from earlier work
[3] = biological target: T2, Recombinant human P450 1B1 (Homo sapiens, UniProt Q16678); experiment: N- and C-oxidation by recombinant human P450 1B1; assay type: in vitro ADME
T2 sequence (Q16678 1-543): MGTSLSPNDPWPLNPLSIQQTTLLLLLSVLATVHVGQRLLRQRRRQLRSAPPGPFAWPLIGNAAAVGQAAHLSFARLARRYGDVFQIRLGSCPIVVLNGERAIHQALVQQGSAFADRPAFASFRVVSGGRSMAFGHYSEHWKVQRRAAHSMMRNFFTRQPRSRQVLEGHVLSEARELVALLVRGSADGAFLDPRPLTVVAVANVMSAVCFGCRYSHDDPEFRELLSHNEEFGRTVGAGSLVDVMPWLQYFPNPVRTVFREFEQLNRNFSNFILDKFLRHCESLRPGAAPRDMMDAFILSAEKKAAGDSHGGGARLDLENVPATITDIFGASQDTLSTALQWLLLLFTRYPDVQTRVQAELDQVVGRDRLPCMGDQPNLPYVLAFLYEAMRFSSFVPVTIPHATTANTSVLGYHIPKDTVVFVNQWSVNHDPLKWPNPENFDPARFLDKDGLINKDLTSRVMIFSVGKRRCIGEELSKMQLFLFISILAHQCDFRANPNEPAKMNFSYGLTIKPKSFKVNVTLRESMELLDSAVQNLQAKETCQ

liver DNA = details: male C57BL/6 mice; 24 h post-treatment; 5 mg/kg; cited from earlier work
[4] = Plasma clearance of 14C radioactivity in mice; assay type: in vivo, female C57BL/6J mice
[5] = system: liver, pancreas and colorectal DNA; details: female, C57BL/6J, mouse, in vivo
mouse liver DNA = details: in vivo
[6] = system: S. typhimurium strain YG1024; details: cited from earlier work
[7] = system: S. typhimurium tester strain TA98; details: cited from earlier work
[8] = N- and C-oxidation with mouse liver microsomes; assay type: in vitro ADME, female C57BL/6J mice; details: female, C57BL/6J, 200 μM, pH 7.6
[9] = N- and C-oxidation with human liver microsomes; assay type: in vitro ADME; details: 200 μM, pH 7.6

What does the source list for Cc1cnc2ccc3c(nc(N)n3C)c2n1 [MeIQx, 2-Amino-3,8-dimethylimidazo[4,5-f]quinoxaline]?
N-oxidation by P450 1A1 (in words) ([1]; recombinant human P450 1A1): low to not detectable; Covalent Binding Index, colon ([2]; Time 4 h): 113 ±119 (μ mol/mol dNp)/(mmol carcinogen/kg bw); Covalent Binding Index, colon ([2]; Time 24 h): 10.4 ± 11.9 (μ mol/mol dNp)/(mmol carcinogen/kg bw); Covalent Binding Index, colon ([2]; Time 48 h): 2.1 ± 0.9 (μ mol/mol dNp)/(mmol carcinogen/kg bw); Covalent Binding Index, liver ([2]; Time 4 h): 27.7 ± 8.3 (μ mol/mol dNp)/(mmol carcinogen/kg bw); Covalent Binding Index, liver ([2]; Time 24 h): 11.5 ± 7.7 (μ mol/mol dNp)/(mmol carcinogen/kg bw); Covalent Binding Index, liver ([2]; Time 48 h): 20.5 ± 8.4 (μ mol/mol dNp)/(mmol carcinogen/kg bw); Covalent Binding Index, pancreas ([2]; Time 4 h): 0.8 ± 0.2 (μ mol/mol dNp)/(mmol carcinogen/kg bw); Covalent Binding Index, pancreas ([2]; Time 24 h): 0.2 ± 0.1 (μ mol/mol dNp)/(mmol carcinogen/kg bw); Covalent Binding Index, pancreas ([2]; Time 48 h): 0.1 ± 0.1 (μ mol/mol dNp)/(mmol carcinogen/kg bw); time of highest level of 14C isotope in colorectal DNA ([2]; colorectal DNA, time points 4, 24, 48 h): 4 h; 14C-isotope associated with liver DNA at 48 h, relative to 4 h ([2]; liver DNA, T 48 h vs 4 h): up to 74%; total [14C]-MeIQx-DNA adduct formation, based upon AMS measurements ([2]; liver, 24 h post treatment, 2.13 mg/kg by gavage): 11.4 ± 7.6 adducts per 10^8 nucleotides; CBI in liver at T4 and 24 h ([2]; liver, T4 and 24 h, range over both HAAs): 7 - 28; 14C-isotope associated with pancreas DNA at 48 h, relative to 4 h ([2]; pancreas DNA, T 48 h vs 4 h): ≤ 25%; dA-N^6-MeIQx adduct level relative to dG-C8-MeIQx (rat liver DNA): ~ 5%; dG-N^2-MeIQx adduct level relative to dG-C8-MeIQx (rat liver DNA): 30 - 50%; N-oxidation by P450 1B1 (in words) ([3]; recombinant human P450 1B1): low to not detectable; [14C]-MeIQx bound to liver DNA (liver DNA): about 20 adducts per 10^8 nucleotides; radioactivity cleared from plasma within 48 h ([4]; gavage, 14C-MeIgQx 9.68 mg/kg or 14C-MeIQx 2.13 mg/kg): greater than 95%; time of peak plasma levels in radioactivity ([4]; gavage, 14C-MeIgQx 9.68 mg/kg or 14C-MeIQx 2.13 mg/kg, time points 4, 24, 48 h): 4 h

With Cc1cnc2cc3nc(N)n(C)c3cc2n1 [MeIgQx, 2-Amino-1,7-dimethylimidazo[4,5-g]quinoxaline] as the molecule, how does the “Estimated C-oxidation rate, HO-MeIg Qx formation” value (shortened to “Estimated C-oxidation rate”) ([1]; human, 200 μM, pH 7.6) read?
Its value is 6.9 ± 2.4 nmol/min/100 pmol P450.

And the “Estimated N-oxidation rate, HONH-MeIg Qx formation” value (“Estimated N-oxidation rate” for short) ([1]; human, 200 μM, pH 7.6)?
The value was 14.1 ± 4.9 nmol/min/100 pmol P450.

What about the “rate of MeIgQx N-oxidation by P450 1A1 relative to P450 1A2” value ([1]; human, recombinant enzyme, 200 μM, pH 7.6) of the same molecule?
The value was ~ 3 fold.

What about the “CBI in liver at T4 and 24 h” value [5] of the same molecule?
The value was 7 - 28.

And the “time of highest level of 14C isotope in colorectal DNA” value [5]?
The value was 24 h.

What about the “Covalent Binding Index, colon” value ([5]; 4 h) of the same molecule?
The value was 12.0 ± 6.5 (μ mol/mol dNp)/(mmol carcinogen/kg bw).

And the “Covalent Binding Index, liver” value ([5]; 4 h)?
The value was 21.7 ± 8.6 (μ mol/mol dNp)/(mmol carcinogen/kg bw).

And the “Covalent Binding Index, pancreas” value ([5]; 4 h)?
Its value is 2.4 ± 2.4 (μ mol/mol dNp)/(mmol carcinogen/kg bw).

And the “14C-isotope associated with liver DNA at 24 h, relative to 4 h” value ([5]; 24 h)?
Its value is 33%.

What about the “14C-isotope associated with pancreas DNA at 24 h, relative to 4 h” value ([5]; 24 h) of the same molecule?
Its value is 44%.

And the “Covalent Binding Index, colon” value ([5]; 24 h)?
Its value is 138 ±114 (μ mol/mol dNp)/(mmol carcinogen/kg bw).

And the “Covalent Binding Index, liver” value ([5]; 24 h)?
Its value is 7.0 ± 3.2 (μ mol/mol dNp)/(mmol carcinogen/kg bw).

And the “Covalent Binding Index, pancreas” value ([5]; 24 h)?
The value was 1.1 ± 0.6 (μ mol/mol dNp)/(mmol carcinogen/kg bw).

What about the “14C-isotope associated with liver DNA at 48 h, relative to 4 h” value ([5]; 48 h) of the same molecule?
The value was 27%.

And the “14C-isotope associated with pancreas DNA at 48 h, relative to 4 h” value ([5]; 48 h)?
The value was 17%.

And the “Covalent Binding Index, colon” value ([5]; 48 h)?
The value was 28.7 ± 18.5 (μ mol/mol dNp)/(mmol carcinogen/kg bw).

What about the “Covalent Binding Index, liver” value ([5]; 48 h) of the same molecule?
The value was 5.8 ± 0.6 (μ mol/mol dNp)/(mmol carcinogen/kg bw).

What about the “Covalent Binding Index, pancreas” value ([5]; 48 h) of the same molecule?
Its value is 0.2 ± 0.2 (μ mol/mol dNp)/(mmol carcinogen/kg bw).

And the “Estimated C-oxidation rate” value ([3]; human, 200 μM, pH 7.6)?
The value was 2.5 ± 0.3 nmol/min/100 pmol P450.

And the “Estimated N-oxidation rate” value ([3]; human, 200 μM, pH 7.6)?
The value was 3.9 ± 0.6 nmol/min/100 pmol P450.

And the “potential dA adduct of MeIgQx ([M+H]+ at m/z 463.2)” value (mouse liver DNA)?
The value was “no peaks were detected above background level”.

And the “putative dG-C8-MeIgQx adduct, MS^2 or MS^3 scan stages” value (mouse liver DNA)?
Its value is “not detected”.

And the “genotoxic potency in YG1024 relative to TA98, fold greater” value [6]?
Its value is 16 fold.

What about the “mutagenic potency, fold weaker than PhIP” value [6] of the same molecule?
Its value is “about 10 fold”.

What about the “potency in the Ames reversion assay, fold lower than MeIQx” value [7] of the same molecule?
The value was “about 4,000 fold”.

What about the “radioactivity cleared from plasma within 48 h” value ([4]; female, C57BL/6J, mouse, in vivo, 48 h) of the same molecule?
Its value is “greater than 95%”.

What about the “Estimated C-oxidation rate” value [8] of the same molecule?
Its value is 0.5 ± 0.2 nmol/min/mg microsomal protein.

And the “Estimated N-oxidation rate” value [8]?
The value was 0.3 ± 0.1 nmol/min/mg microsomal protein.

What about the “Estimated C-oxidation rate” value [9] of the same molecule?
The value was 0.1 ± 0.01 nmol/min/mg microsomal protein.

And the “Estimated N-oxidation rate” value [9]?
Its value is 0.4 ± 0.02 nmol/min/mg microsomal protein.

What about the “rate of N-oxidation” value [9] of the same molecule?
Its value is 0.4 nmol/min/mg protein.

For Cn1c(N)nc2ncc(-c3ccccc3)cc21 [PhIP, 2-amino-1-methyl-6-phenylimidazo[4,5-b]pyridine, reference compound], which mutagenic potency ([6]; S. typhimurium YG1024) is on record?
The mutagenic potency was 3,015 rev/μg.
